Test [1] concerns the target T1, human leukocyte elastase (HLE) (Homo sapiens, UniProt P08246).
T1 construct: from tissue; host or cells: human leukocytes (from the name)
T1 sequence (P08246 30-267): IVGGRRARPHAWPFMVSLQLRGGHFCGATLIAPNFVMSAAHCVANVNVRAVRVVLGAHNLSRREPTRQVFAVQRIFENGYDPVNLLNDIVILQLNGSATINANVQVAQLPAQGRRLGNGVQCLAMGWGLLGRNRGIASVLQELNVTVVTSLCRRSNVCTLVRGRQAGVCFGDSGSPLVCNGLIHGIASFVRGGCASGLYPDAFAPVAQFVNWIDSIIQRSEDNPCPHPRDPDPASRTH
Kind of test: Inactivation of human leukocyte elastase (HLE). It is filed as biochemical. Conditions: Table XVI.

The target in test [2] is T2, cathepsin G (Homo sapiens, UniProt P08311).
T2 construct: from tissue; host or cells: human leukocytes
T2 sequence (P08311 21-255): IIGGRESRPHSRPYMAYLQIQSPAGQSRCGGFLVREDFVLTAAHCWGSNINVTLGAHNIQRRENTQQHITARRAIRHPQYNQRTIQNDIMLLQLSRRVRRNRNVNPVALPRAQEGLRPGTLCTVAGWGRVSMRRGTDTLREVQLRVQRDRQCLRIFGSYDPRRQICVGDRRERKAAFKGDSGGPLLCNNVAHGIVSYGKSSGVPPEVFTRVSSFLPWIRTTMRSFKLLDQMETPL
Put plainly: Inactivation of cathepsin G. The test is classed as biochemical. Also on record: percentage of inhibition: concentration or dose not given beside the values. Conditions: Table XVI; for kinact/KI: pH 7.5, 25° C, [I] 35-710 μM, read-out: kobs/[I]; for percentage of inhibition: after 5 min incubation.

Test [3] has as its target T3, porcine pancreatic elastase (PPE) (Sus scrofa, UniProt P00772).
T3 construct: from tissue; host or cells: porcine pancreas (from the name)
Kind of test: Inactivation of porcine pancreatic elastase (PPE). It is filed as biochemical. Conditions: Table XVI; pH 7.5, 25° C; [I] 0.04-2.0 mM; read-out: kobs/[I].

Test [4] has as its target chymotrypsin (Bos taurus, UniProt P00766). Put plainly: Inactivation of chymotrypsin. The test is classed as biochemical, bovine. As to conditions: Table XVI, read-out: kobs/[I].
The target in test [5] is T4, human thrombin (Homo sapiens, UniProt P00734).
T4 construct: human thrombin
Kind of test: Inactivation rate of human thrombin. It is filed as biochemical. As to conditions: Table VIII; pH 7.5, 25° C; [I] 1.2-54 μM; read-out: kobs/[I]. The protocol:
(§1) Inactivation rates of serine proteases by substituted isocoumarins were measured by the incubation method. An aliquot of inhibitor (25 or 50 μl) in Me2 SO was added to a buffered enzyme solution (0.01-2.3 μM) to initiate the inactivation. Aliquots (50 μl) were withdrawn at various intervals and the residual enzymatic activity was measured. Me2 SO concentration in the reaction mixture was 8-12% (v/v). 0.1 Hepes, 0.01M CaCl2, pH 7.5 buffer was utilized for trypsin and coagulation enzymes. 0.1M Hepes, 0.5M NaCl, pH 7.5 was utilized for other serine proteases. The inhibitor concentrations are shown in all the tables. Peptide thioesters or peptide nitroanilides with appropriate sequence were used as substrates for various serine proteases. All peptide thioester hydrolysis rates were measured with assay mixtures containing 4,4'-dithiodipyridine (ε324 =19800M^-1 cm^-1; Grasetti & Murray, Arch. Biochem. Biophys. 119, pp 41-49 (1967)). Peptide 4-nitroanilide nitroanilide hydrolysis was measured at 410 nm (ε410 =8800M^-1 cm^-1; Erlanger et al., Arch. Biochem. Biophys. 95, pp 271-278 (1961)). First order inactivation rate constant (kobs) were obtained from plots of ln (vt /vo) vs time, and the correlation coefficients were greater than 0.98.
(§2) ^a Inhibition rates were measured in 0.1M Hepes, 0.01M CaCl2, pH
(§3) 7.5 buffer, 8% Me2 SO and at 25° C.

Test [6] has as its target T5, bovine thrombin (Bos taurus, UniProt P00735).
T5 construct: bovine thrombin
Put plainly: Inactivation rate of bovine thrombin. It is filed as biochemical. Conditions: Table VIII; pH 7.5, 25° C; [I] 1.2-54 μM; read-out: kobs/[I]. Here is the method:
as §1
(§4) ^a Conditions were as 0.1M Hepes, 0.01M CaCl2, pH 7.5 and 8-12%
(§5) Me2 SO and 25° C. Rate constants were measured by incubation
(§6) method unless otherwise noted. An aliquot of inhibitor was added to an
(§7) enzyme solution and aliquots removed with time and assayed for remaining
(§8) enzymatic activity. Firstorder rate constants, kobs were obtained
(§9) from the plots of ln(vt /vo) versus time.
as §2, §3

For test [7], the target named is T6, bovine trypsin (Bos taurus, UniProt P00760).
T6 sequence (P00760 24-246): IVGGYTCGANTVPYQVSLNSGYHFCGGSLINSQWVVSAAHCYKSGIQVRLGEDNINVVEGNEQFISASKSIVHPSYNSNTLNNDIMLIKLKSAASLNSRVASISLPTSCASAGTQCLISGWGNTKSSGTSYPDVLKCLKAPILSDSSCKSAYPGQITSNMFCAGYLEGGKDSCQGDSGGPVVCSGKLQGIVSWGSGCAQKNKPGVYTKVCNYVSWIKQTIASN
Kind of test: Inactivation rate of bovine trypsin. Conditions: Table VIII; pH 7.5, 25° C; [I] 1.1-4.6 μM; read-out: kobs/[I]. It is filed as biochemical. Here is the method: as §1, §4, §5, §6, §7, §8, §9, §2, §3

Test [8] has as its target T7, rat skin tryptase (Rattus norvegicus, UniProt P27435).
T7 construct: from tissue; host or cells: rat skin
Kind of test: Inactivation rate of rat skin tryptase. Conditions: pH 7.5, Table IX; pH 7.5, 25° C; [I] 0.42-0.51 μM; read-out: kobs/[I]. The test is classed as biochemical. The protocol: as §1
^b Inactivation rates were measured at 25 mM phosphate, 0.5M NaCl, 1
mM EDTA, pH 7.5 buffer, 9% Me2 SO and 25° C.
as §2
(§10) 7.5 buffer for human plasmin; 25 mM Phosphate, 0.5M NaCl, 1 mM EDTA, pH
(§11) 7.5 buffer for rat skin tryptase and 0.1M Hepes, 0.5M NaCl, pH 7.5 for
(§12) human lung tryptase, human skin tryptase and rt-PA. All enzymes were
(§13) assayed with ZArg-SBzl (0.07 mM) in the presence of 4,4dithiodipyridine
(§14) (0.33 mM). Reaction mixtures contained 8% Me2 SO and assays were […]

In test [9] the target is recombinant human tissue plasminogen activator (Homo sapiens, UniProt P00750). Put plainly: Inactivation rate of recombinant human tissue plasminogen activator. It is filed as biochemical. As to conditions: pH 7.5, Table IX; pH 7.5, 25° C; [I] 3.5-5.0 μM; read-out: kobs/[I]. The protocol:
as §1
^a Inactivation constants were measured at 0.1M Hepes, 0.5M NaCl (or
as §2, §10, §11, §12, §13, §14

The target in test [10] is human lung tryptase. Put plainly: Inactivation rate of human lung tryptase. The test is classed as biochemical. Conditions: Table IX. The protocol: as §1
^a Inactivation rates were measured at 0.1M Hepes, 0.5M NaCl, pH 7.5
buffer, 8% Me2 SO and 25° C.
as §2, §10, §11, §12, §13, §14

[11] abbreviates: pH 7.5, 25° C, [I] 0.07-710 μM, read-out: kobs/[I].
[12] abbreviates: pH 7.5, second order, equimolar inhibitor and enzyme.
The mark [13] stands for this setting: pH 7.5, second order, equimolar inhibitor and enzyme, read-out: kobs/[I].

14 molecules from US5324648A, “Substituted isocoumarins as serine protease inhibitors and anti-inflammatory agents” (Georgia Tech Research Corporation, priority 1992, dated 1994) can be followed below.

Molecules are shown by their SMILES. Like-named read-outs stand apart in the source and are kept apart here.

T3 sequence (P00772 27-266): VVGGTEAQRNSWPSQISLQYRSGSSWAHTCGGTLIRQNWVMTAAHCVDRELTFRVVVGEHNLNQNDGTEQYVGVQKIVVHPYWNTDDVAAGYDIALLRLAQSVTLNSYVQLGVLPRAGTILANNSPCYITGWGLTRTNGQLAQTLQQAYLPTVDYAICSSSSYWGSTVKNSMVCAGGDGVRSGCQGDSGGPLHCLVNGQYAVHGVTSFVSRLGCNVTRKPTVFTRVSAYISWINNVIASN
T7 sequence (P27435 29-273): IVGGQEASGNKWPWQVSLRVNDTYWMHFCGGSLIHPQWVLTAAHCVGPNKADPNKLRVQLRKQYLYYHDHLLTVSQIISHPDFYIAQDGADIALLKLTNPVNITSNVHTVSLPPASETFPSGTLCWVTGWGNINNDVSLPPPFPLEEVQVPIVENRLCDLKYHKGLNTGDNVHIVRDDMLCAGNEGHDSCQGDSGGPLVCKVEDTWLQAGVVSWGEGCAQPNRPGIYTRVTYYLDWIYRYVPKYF
recombinant human tissue plasminogen activator, sequence (P00750 36-562): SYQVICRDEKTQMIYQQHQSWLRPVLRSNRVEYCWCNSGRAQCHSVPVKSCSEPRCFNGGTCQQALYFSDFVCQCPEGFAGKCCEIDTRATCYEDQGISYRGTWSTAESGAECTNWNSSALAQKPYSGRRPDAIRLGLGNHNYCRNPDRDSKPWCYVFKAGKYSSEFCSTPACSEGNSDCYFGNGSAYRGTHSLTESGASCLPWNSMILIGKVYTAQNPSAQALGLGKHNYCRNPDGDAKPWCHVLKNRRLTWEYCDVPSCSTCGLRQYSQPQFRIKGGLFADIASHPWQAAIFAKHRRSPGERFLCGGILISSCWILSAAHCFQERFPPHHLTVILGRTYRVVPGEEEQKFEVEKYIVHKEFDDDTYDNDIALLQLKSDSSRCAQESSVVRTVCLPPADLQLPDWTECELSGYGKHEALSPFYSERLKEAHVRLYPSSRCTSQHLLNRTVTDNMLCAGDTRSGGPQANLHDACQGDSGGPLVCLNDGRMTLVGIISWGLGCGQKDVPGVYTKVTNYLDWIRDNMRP

With `O=c1oc(OCCBr)c(Cl)c2ccc([N+](=O)[O-])cc12` [7-nitro-4-chloro-3-(2-bromoethoxy)isocoumarin], the kinact/KI in test [1] (setting [11]) amounted to 65600 M⁻¹ s⁻¹; in [2], 710 M⁻¹ s⁻¹; in test [3], 6330 M⁻¹ s⁻¹; in test [4] (setting [12]), 98000 M⁻¹ s⁻¹.
For `O=C(Cc1ccccc1)Nc1ccc2c(Cl)c(OCCBr)oc(=O)c2c1` [7-phenylacetylamino-4-chloro-3-(2-bromoethoxy)isocoumarin], the kinact/KI stood at 480000 M⁻¹ s⁻¹ in test [1] (setting [13]), 70 M⁻¹ s⁻¹ in test [2], 4950 M⁻¹ s⁻¹ in test [3] and 82000 M⁻¹ s⁻¹ in test [4] (setting [12]).
Take `O=C(Cc1ccccc1)Nc1ccc2c(Cl)c(OCCCBr)oc(=O)c2c1` [7-phenylacetylamino-4-chloro-3-(3-bromopropoxy)isocoumarin]: the kinact/KI in [1] (setting [11]) amounted to 32400 M⁻¹ s⁻¹; in test [3], 28 M⁻¹ s⁻¹; in [4] (setting [12]) it was 140000 M⁻¹ s⁻¹. Also, in test [2], the percentage of inhibition came out at 28%.
As to `O=C(Nc1ccccc1)Nc1ccc2c(Cl)c(OCCCBr)oc(=O)c2c1` [7-phenylcarbamoylamino-4-chloro-3-(3-bromopropoxy)isocoumarin], the kinact/KI in test [1] (pH 7.5, biphasic plot, read-out: kobs/[I] (biphasic, first value)) amounted to 13800 M⁻¹ s⁻¹; in test [1] (pH 7.5, biphasic plot, read-out: kobs/[I] (biphasic, second value)), 2890 M⁻¹ s⁻¹; in test [3], 4 M⁻¹ s⁻¹; in [4] (pH 7.5, 25° C, [I] 1.7-58 μM), 180 M⁻¹ s⁻¹. In test [2], this molecule yielded a percentage of inhibition of 17%.
Turning to `O=c1oc(OCCBr)c(Cl)c2ccc(NC(=S)Nc3ccccc3)cc12` [7-phenylthiocarbamoylamino-4-chloro-3-(2-bromoethoxy)isocoumarin], the kinact/KI in test [1] (setting [13]) was greater than 480000 M⁻¹ s⁻¹; in test [2], 200 M⁻¹ s⁻¹; in [3] it was 1250 M⁻¹ s⁻¹; in [4] (setting [12]), 39000 M⁻¹ s⁻¹.
For the molecule `CC(C)NC(=O)Nc1ccc2c(Cl)c(OCCSC(=N)N)oc(=O)c2c1` [(CH3)2 CHNHCONH-CiTEtOIC, 7-(isopropylcarbamoylamino)-4-chloro-3-(2-isothiureidoethoxy)isocoumarin], the kinact/KI in test [5] was 5000 M⁻¹ s⁻¹; in [6], 4100 M⁻¹ s⁻¹.
For `C[C@H](NC(=O)OC(C)(C)C)C(=O)N[C@@H](C)C(=O)Nc1ccc2c(Cl)c(OCCSC(=N)N)oc(=O)c2c1` [Boc--Ala-- Ala--NH-CiTEtOIC, 7-(N-t-butyloxycarbonyl-L-alanyl-L-alanylamino)-4-chloro-3-(2-isothiureidoethoxy)isocoumarin], the values for the kinact/KI in test [5] and in test [6] were 970 M⁻¹ s⁻¹ and 1530 M⁻¹ s⁻¹, respectively.
As for `CC(C)(C)OC(=O)N[C@H](Cc1ccccc1)C(=O)Nc1ccc2c(Cl)c(OCCCSC(=N)N)oc(=O)c2c1` [Boc-D-Phe--NH-CiTPrOIC, 7-(N-t-butyloxycarbonyl-D-phenylalanylamino)-4-chloro-3-(3-isothiureidopropoxy)isocoumarin], the kinact/KI worked out at 230 M⁻¹ s⁻¹ in test [5], 190 M⁻¹ s⁻¹ in test [6] and 105000 M⁻¹ s⁻¹ in [7].
Turning to `CC(C)(C)OC(=O)N[C@@H](Cc1ccccc1)C(=O)Nc1ccc2c(Cl)c(OCCCSC(=N)N)oc(=O)c2c1` [Boc-L-Phe--NH-CiTPrOIC, 7-(N-t-butyloxycarbonyl-L-phenylalanylamino)-4-chloro-3-(3-isothiureidopropoxy)isocoumarin], the kinact/KI was 520 M⁻¹ s⁻¹ in [5], 150000 M⁻¹ s⁻¹ in test [8], 330 M⁻¹ s⁻¹ in [6] and 6000 M⁻¹ s⁻¹ in [9]. Moreover, in [10] (pH 7.5, 25° C, [I] 0.42-0.47 μM), the “kobs/[I]” value was 170,000 M^-1 s^-1.
`N=C(N)SCCCOc1oc(=O)c2cc(NC(=O)[C@H](N)Cc3ccccc3)ccc2c1Cl` [D-Phe--NH-CiTPrOIC, 7-(D-phenylalanylamino)-4-chloro-3-(3-isothiureidopropoxy)isocoumarin]: the kinact/KI was 220 M⁻¹ s⁻¹ in test [5], 180 M⁻¹ s⁻¹ in test [6] and 68300 M⁻¹ s⁻¹ in test [7].
With `N=C(N)SCCCOc1oc(=O)c2cc(NC(=O)[C@@H](N)Cc3ccccc3)ccc2c1Cl` [L-Phe--NH-CiTPrOIC, 7-(L-phenylalanylamino)-4-chloro-3-(3-isothiureidopropoxy)isocoumarin], the kinact/KI worked out at 470 M⁻¹ s⁻¹ in test [5], 96000 M⁻¹ s⁻¹ in test [8], 400 M⁻¹ s⁻¹ in test [6] and 11000 M⁻¹ s⁻¹ in [9]. In [10] (not time dependent, at 0.34-5.0 μM), this molecule came in with a percentage of inhibition of 54%.
`N=C(N)SCCOc1oc(=O)c2cc(NC(=O)Nc3cccc4ccccc34)ccc2c1Cl` [Naphthyl-NHCONH-CiTEtOIC, 7-(1-naphthylcarbamoylamino)-4-chloro-3-(2-isothiureidoethoxy)isocoumarin]: the figures for the kinact/KI in test [5] and in test [6] were 5800 M⁻¹ s⁻¹ and 17500 M⁻¹ s⁻¹, respectively.
`N=C(N)SCCOc1oc(=O)c2cc(NC(=S)Nc3ccccc3)ccc2c1Cl` [PhNHCSNH-CiTEtOIC, 7-phenylthiocarbamoylamino-4-chloro-3-(2-isothiureidoethoxy)isocoumarin]: the kinact/KI in test [5] came to 21400 M⁻¹ s⁻¹.
Consider `N=C(N)SCCOc1oc(=O)c2cc(NC(=S)Nc3cccc(C(=O)O)c3)ccc2c1Cl` [m-Carboxy-PhNHCSNH-CiTEtOIC, 7-(m-carboxyphenylthiocarbamoyl)amino-4-chloro-3-(2-isothiureidoethoxy)isocoumarin], for which, in [5], the kinact/KI worked out at 17500 M⁻¹ s⁻¹.
